In patent publication US5208224A, “Phosphorus containing compounds as antihypercholesterolemic and antiatherosclerotic agents” (Warner-Lambert Company, priority 1991, dated 1993):

biological target: T1, acyl-CoA:cholesterol acyltransferase (ACAT) (Oryctolagus cuniculus, UniProt G1SFD9); assay: In vitro inhibition of ACAT: formation of radiolabeled cholesterol oleate from radiolabeled oleic acid in rabbit intestinal microsomes; format: biochemical; details: not given
T1 construct: tissue preparation containing rabbit intestinal microsomes; from tissue; host or cells: rabbit intestinal microsomes
T1 sequence (G1SFD9 1-524): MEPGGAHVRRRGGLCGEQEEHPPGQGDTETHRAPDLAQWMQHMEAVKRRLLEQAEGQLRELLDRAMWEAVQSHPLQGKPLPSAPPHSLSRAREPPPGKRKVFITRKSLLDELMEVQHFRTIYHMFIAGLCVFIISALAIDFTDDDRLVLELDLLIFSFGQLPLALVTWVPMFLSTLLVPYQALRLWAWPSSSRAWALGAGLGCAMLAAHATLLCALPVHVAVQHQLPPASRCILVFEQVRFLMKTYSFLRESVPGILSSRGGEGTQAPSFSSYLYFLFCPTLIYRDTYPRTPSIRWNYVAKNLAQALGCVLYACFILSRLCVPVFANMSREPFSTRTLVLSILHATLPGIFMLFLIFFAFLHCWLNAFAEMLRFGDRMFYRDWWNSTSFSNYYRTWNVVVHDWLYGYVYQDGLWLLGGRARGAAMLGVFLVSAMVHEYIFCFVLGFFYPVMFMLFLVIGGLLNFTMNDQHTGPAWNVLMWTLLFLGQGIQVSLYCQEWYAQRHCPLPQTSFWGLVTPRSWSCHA
Description: The test assesses the ability of a test compound to inhibit the acylation of cholesterol by oleic acid by measuring the amount of radiolabeled cholesterol oleate formed from radiolabeled oleic acid in a tissue preparation containing rabbit intestinal microsomes.

Structure (SMILES) | IC50 [nM]
CCCCCCCCCCC1CN(Cc2ccccc2)P(=O)(OCC(=O)Nc2c(C(C)C)cccc2C(C)C)O1 (racemic) [Example 30, (±)-N-[2,6-Bis(1-methylethyl)phenyl]2-[[5-decyl-3-(phenylmethyl)-1,3,2-oxazaphosphonolidin-2-yl]-oxy]acetamide, P-oxide] | 33
CCCCCCCCCOP(=O)(OCC)N(CC(=O)Nc1c(C(C)C)cccc1C(C)C)Cc1ccccc1 (racemic) [Example 32, (±)-[2-[[2,6 Bis(1-methylethyl)phenyl]amino]-2-oxoethyl](phenylmethyl)phosphoramidic Acid, Ethyl Nonyl Ester] | 14
CCCCCCCCCOP(=O)(Oc1ccccc1)N(CC(=O)Nc1c(C(C)C)cccc1C(C)C)Cc1ccccc1 (racemic) [Example 34, (±)-[[[2,6-Bis(1-methylethyl)phenyl]amino]2-oxoethyl]-(phenylmethyl)phosphoramidic Acid, Nonyl Phenyl Ester] | 23
CCCCCCCCCCCCC(C)OP(=O)(Oc1ccccc1)N(CC(=O)Nc1c(C(C)C)cccc1C(C)C)Cc1ccccc1 (racemic) [Example 35, (±)-[2-[[2,6-Bis(1-methylethyl)phenyl]amino]-2-oxoethyl](phenylmethyl)phosphoramidic Acid, 1-Methyltridecyl Phenyl Ester] | 160

same assay, conditions: rabbit intestinal microsomes; read-out: IC50 (concentration of test compound required to inhibit cholesteryl oleate formation to 50% of control)

Structure (SMILES) | IC50 [nM]
CCCCCCC(C)OP(=O)(CC(=O)Nc1c(C(C)C)cccc1C(C)C)c1ccccc1 (racemic) [Example 11, (±)-2-[2,6-Bis(1-methylethyl)phenyl]amino]-2-oxoethyl]phenylphosphinic Acid, 1-Methylheptyl Ester] | 35
CCCCCCCCCCCCOP(=O)(CC(=O)Nc1c(C(C)C)cccc1C(C)C)c1ccccc1 (racemic) [Example 12, (±)-[2-[[2,6-Bis(1-methylethyl)phenyl]amino]-2-oxoethyl]phenylphosphinicAcid, Dodecyl Ester] | 29

Next, values leading:

IC50 [nM] | Structure (SMILES)
23 | CCCCCCCCCOP(=O)(c1ccccc1)N(CC(=O)Nc1c(C(C)C)cccc1C(C)C)Cc1ccccc1 (racemic) [Example 31, (±)-N-[2-[2,6-Bis(1-methylethyl)phenyl]amino]-2-oxoethyl]-P-phenyl-N-(phenylmethyl)phosphonamidic Acid, Nonyl Ester]
2300 | CC(C)c1cccc(C(C)C)c1NC(=O)CP(=O)(c1ccccc1)c1ccccc1 [Example 2, N-2,6-Bis(1-methylethyl)phenyl-2-(diphenylphosphinyl)acetamide]
72 | CC(C)c1cccc(C(C)C)c1NC(=O)CP(=O)(OCc1ccccc1)OCc1ccccc1 [Example 36, [2-[[2,6-Bis(1-methylethyl)phenyl]amino]-2-oxoethyl]phosphonic Acid, Bis (Phenylmethyl)ester]
